Tests used:
[1] = target: human C5a receptor (C5aR) (Homo sapiens (Human), UniProt P21730); assay: Inhibition of C5a-C5aR binding (biotinylated human C5a, U937/C5aR cells, FACS)
Procedure: U937 cells were originally obtained from the American Type Culture Collection (ATCC) and transfected with human C5a receptor (C5aR). U937/C5aR cells were cultured at 37° C., 5% CO2 in RPMI1640 (Gibco) supplemented with 10% FBS (Gibco) and 350 µg/ml Geneticin (Gibco) and passaged every 3 days to maintain the density range from […] to 2×10^6 cells/ml.
Human C5a biotinylation was performed according to the procedure provided by manufacturer (Thermo Scientific, A39257). 10 mM solution of Sulfo-NHS-LC-Biotin was prepared by adding 180μl ultrapure H2O to the 1 mg vial immediately. 12 μl 10 mM biotin reagent was added to […] human C5a solution, gently pipetted for 3 seconds, and incubated on ice for 2 hours. Amicon ultra-0.5 centrifuge filter device (Millipore, UFC5003BK) was pre-rinsed with Milli-Q H2O, centrifuged at 14000 g for 5 min immediately before use. Up to […] sample (diluted by PBS) was added to the device and capped. The device was spinned at 14000 g for approximately 5 min. 250 μl PBS was added to the filter device, spinned at 14000 g for 5 min, and repeatedly washed 6 times. The filter device was separated from the microcentrifuge tube and placed upside down in a clean microcentrifuge tube, spinned for 2 min at 1000 g to transfer the concentrated sample from the device to the tube.
U937/C5aR cells were collected and washed twice by PBS, cells were suspended in PBS+0.1% BSA buffer at the density of 3×10^6 cells/ml. 100 μl cell suspension was added to a 96 well microplate. 50 μl compound diluted in assay buffer and 50 μl biotinylated ligand human C5a (30 nM) were added to corresponding wells in order and the plate was incubated on ice for 120 min and then centrifuged at 1000 rpm for 3-5 min at 4° C. Supernatant was removed and cells were washed by pre-cold PBS twice. 100 μl FITC conjugated streptavidin was added to cells, incubated on ice for another 30 min, and then centrifuged at 1000 rpm for 3-5 min at 4° C. Supernatant was removed and cells were washed by pre-cold PBS twice. 150 μl PBS was added to suspend the cells and signals were detected by FACS (Beckman, Cytoflex).

C5aR = C5aR (Homo sapiens (Human), UniProt P21730); assay: Calcium mobilization (U937/C5aR or HEK293/C5aR cells, FLIPR); type: cell-based; settings: agonist human C5a at EC80, FLIPR
Method in brief: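 U937 or HEK293 cells expressing human C5aR, plated overnight, then preincubated 60 min with compound. After Fluo-4 Direct dye loading (50 min at 37 °C, 10 min at room temperature), intracellular calcium rise on FLIPR was triggered by human C5a agonist at EC80.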

Sequence of C5aR (P21730 whole entry): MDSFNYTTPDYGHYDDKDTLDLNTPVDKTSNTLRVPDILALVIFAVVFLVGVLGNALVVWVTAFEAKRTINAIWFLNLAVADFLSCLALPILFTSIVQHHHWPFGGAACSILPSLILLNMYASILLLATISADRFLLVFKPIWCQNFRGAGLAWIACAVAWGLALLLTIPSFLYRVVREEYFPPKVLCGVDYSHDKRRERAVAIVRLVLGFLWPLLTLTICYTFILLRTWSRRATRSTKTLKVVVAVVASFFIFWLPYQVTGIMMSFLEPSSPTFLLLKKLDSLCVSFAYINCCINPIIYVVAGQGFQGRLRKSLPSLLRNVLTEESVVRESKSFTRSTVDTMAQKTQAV
Sequence of human C5a receptor (C5aR) (P21730 whole entry): as above

Structure (SMILES)	IC50 [1] [nM]	IC50 (C5aR) [nM]
Cc1cccc(F)c1C(=O)N1C(c2ccc(NC3CCCC3)cc2)C(C(=O)Nc2ccc3c(c2)CCNC3)C[C@@H]2CCC[C@@H]21 (relative stereo) [Compound 184, cis-2-(4-(cyclopentylamino)phenyl)-1-(2-fluoro-6-methylbenzoyl)-N-(1,2,3,4-tetrahydroisoquinolin-6-yl)octahydro-1H-cyclopenta[b]pyridine-3-carboxamide]	2000 to 5000	2000 to 10000
Cc1ccc(NC(=O)[C@H]2CCCN(S(=O)(=O)c3ccc(F)cc3C)[C@H]2c2ccc(NC3CCCC3)cc2)cc1C(F)(F)F [Compound 15, (2R,3S)-2-(4-(cyclopentylamino)phenyl)-1-((4-fluoro-2-methylphenyl)sulfonyl)-N-(4-methyl-3-(trifluoromethyl)phenyl)piperidine-3-carboxamide]	2000 to 5000	2000 to 10000
Cc1ccc(NC(=O)[C@H]2CCCN(S(=O)(=O)c3ccccc3F)[C@H]2c2ccc(NC3CCCC3)cc2)cc1C(F)(F)F [Compound 25, (2R,3S)-2-(4-(cyclopentylamino)phenyl)-1-((2-fluorophenyl)sulfonyl)-N-(4-methyl-3-(trifluoromethyl)phenyl)piperidine-3-carboxamide]	500 to 2000	> 10000
Cc1ccc(NC(=O)[C@H]2CCCN(S(=O)(=O)c3ccccc3[N+](=O)[O-])[C@H]2c2ccc(NC3CCCC3)cc2)cc1C(F)(F)F [Compound 14, (2R,3S)-2-(4-(cyclopentylamino)phenyl)-N-(4-methyl-3-(trifluoromethyl)phenyl)-1-((2-nitrophenyl)sulfonyl)piperidine-3-carboxamide]	2000 to 5000	2000 to 10000
Cc1ccc(NC(=O)[C@H]2CCCN(S(=O)(=O)c3c(F)cccc3F)[C@H]2c2ccc(NC3CCCC3)cc2)cc1C(F)(F)F [Compound 19, (2R,3S)-2-(4-(cyclopentylamino)phenyl)-1-((2,6-difluorophenyl)sulfonyl)-N-(4-methyl-3-(trifluoromethyl)phenyl)piperidine-3-carboxamide]	2000 to 5000	2000 to 10000
Cc1ccc(NC(=O)[C@H]2CCCN(S(=O)(=O)c3ccccc3Cl)[C@H]2c2ccc(NC3CCCC3)cc2)cc1C(F)(F)F [Compound 26, (2R,3S)-1-((2-chlorophenyl)sulfonyl)-2-(4-(cyclopentylamino)phenyl)-N-(4-methyl-3-(trifluoromethyl)phenyl)piperidine-3-carboxamide]	2000 to 5000	> 10000
Cc1ccc(NC(=O)[C@H]2CCCN(c3ccnc(Cl)n3)[C@H]2c2ccc(NC3CCCC3)cc2)cc1C(F)(F)F [Compound 2, (2R,3S)-1-(2-chloropyrimidin-4-yl)-2-(4-(cyclopentylamino)phenyl)-N-(4-methyl-3-(trifluoromethyl)phenyl)piperidine-3-carboxamide]	2000 to 5000	2000 to 10000
Cc1ccc(NC(=O)[C@H]2CCCN(S(=O)(=O)c3cc(F)ccc3C)[C@H]2c2ccc(NC3CCCC3)cc2)cc1C(F)(F)F [Compound 17, (2R,3S)-2-(4-(cyclopentylamino)phenyl)-1-((5-fluoro-2-methylphenyl)sulfonyl)-N-(4-methyl-3-(trifluoromethyl)phenyl)piperidine-3-carboxamide]	500 to 2000	2000 to 10000
Cc1ccc(NC(=O)C2C[C@@H]3CCC[C@@H]3N(C(=O)c3c(C)cccc3F)C2c2ccc(NC3CCCC3)cc2)cc1P(C)(C)=O (relative stereo) [Compound 76, cis-2-(4-(cyclopentylamino)phenyl)-N-(3-(dimethylphosphoryl)-4-methylphenyl)-1-(2-fluoro-6-methylbenzoyl)octahydro-1H-cyclopenta[b]pyridine-3-carboxamide]	2000 to 5000	2000 to 10000

Further lines, results first:

IC50 [1] [nM]	IC50 (C5aR) [nM]	Structure (SMILES)
> 5000	2000 to 10000	Cc1ccc(NC(=O)[C@H]2CCCN[C@H]2c2ccc(NC3CCCC3)cc2)cc1C(F)(F)F [Compound 200, (2R,3S)-2-(4-(cyclopentylamino)phenyl)-N-(4-methyl-3-(trifluoromethyl)phenyl)piperidine-3-carboxamide]
2000 to 5000	2000 to 10000	Cc1ccc(NC(=O)[C@H]2CCCN(S(=O)(=O)c3cccc4ccccc34)[C@H]2c2ccc(NC3CCCC3)cc2)cc1C(F)(F)F [Compound 33, (2R,3S)-2-(4-(cyclopentylamino)phenyl)-N-(4-methyl-3-(trifluoromethyl)phenyl)-1-(naphthalen-1-ylsulfonyl)piperidine-3-carboxamide]
2000 to 5000	2000 to 10000	Cc1ccc(NC(=O)[C@H]2CCCN(S(=O)(=O)c3ccccc3Br)[C@H]2c2ccc(NC3CCCC3)cc2)cc1C(F)(F)F [Compound 27, (2R,3S)-1-((2-bromophenyl)sulfonyl)-2-(4-(cyclopentylamino)phenyl)-N-(4-methyl-3-(trifluoromethyl)phenyl)piperidine-3-carboxamide]
50 to 500	2000 to 10000	Cc1ccc(NC(=O)[C@H]2CCCN(c3ncnc4cccnc34)[C@H]2c2ccc(NC3CCCC3)cc2)cc1C(F)(F)F [Compound 161, (2R,3S)-2-(4-(cyclopentylamino)phenyl)-N-(4-methyl-3-(trifluoromethyl)phenyl)-1-(pyrido[3,2-d]pyrimidin-4-yl)piperidine-3-carboxamide]
50 to 500	500 to 2000	Cc1ccc(NC(=O)[C@H]2C[C@H]3COCC3N(C(=O)c3c(C)cccc3F)[C@H]2c2ccc(NC3CCOCC3)cc2)cc1C(F)(F)F (mixture of isomers) [Compound 135, cis-1-(2-fluoro-6-methylbenzoyl)-N-(4-methyl-3-(trifluoromethyl)phenyl)-2-(4-((tetrahydro-2H-pyran-4-yl)amino)phenyl)octahydrofuro[3,4-b]pyridine-3-carboxamide]
50 to 500	50 to 500	Cc1cccc(F)c1C(=O)N1[C@@H]2CCC[C@@H]2C[C@H](C(=O)Nc2ccc(F)c(F)c2)[C@@H]1c1ccc(NC2CCCC2)cc1 (relative stereo) [Compound 65, cis-2-(4-(cyclopentylamino)phenyl)-N-(3,4-difluorophenyl)-1-(2-fluoro-6-methylbenzoyl)octahydro-1H-cyclopenta[b]pyridine-3-carboxamide]
2000 to 5000	> 10000	Cc1ccc(NC(=O)[C@H]2CCCN(S(=O)(=O)c3c(C)nn(C)c3C)[C@H]2c2ccc(NC3CCCC3)cc2)cc1C(F)(F)F [Compound 38, (2R,3S)-2-(4-(cyclopentylamino)phenyl)-N-(4-methyl-3-(trifluoromethyl)phenyl)-1-((1,3,5-trimethyl-1H-pyrazol-4-yl)sulfonyl)piperidine-3-carboxamide]
500 to 2000	2000 to 10000	Cc1ccc(NC(=O)[C@H]2CCCN(S(=O)(=O)c3cccnc3Cl)[C@H]2c2ccc(NC3CCCC3)cc2)cc1C(F)(F)F [Compound 36, (2R,3S)-1-((2-chloropyridin-3-yl)sulfonyl)-2-(4-(cyclopentylamino)phenyl)-N-(4-methyl-3-(trifluoromethyl)phenyl)piperidine-3-carboxamide]
500 to 2000	2000 to 10000	Cc1cccc(F)c1C(=O)N1[C@@H]2CCC[C@@H]2C[C@H](C(=O)Nc2ccc(Cl)c(Cl)c2)[C@@H]1c1ccc(NC2CCCC2)cc1 (racemic) [Compound 64, cis-2-(4-(cyclopentylamino)phenyl)-N-(3,4-dichlorophenyl)-1-(2-fluoro-6-methylbenzoyl)octahydro-1H-cyclopenta[b]pyridine-3-carboxamide]
50 to 500	500 to 2000	Cc1cccc(F)c1C(=O)N1C2CCC[C@@H]2C[C@H](C(=O)Nc2cccc(Cl)c2)[C@@H]1c1ccc(NC2CCCC2)cc1 (relative stereo) [Compound 55, cis-N-(3-chlorophenyl)-2-(4-(cyclopentylamino)phenyl)-1-(2-fluoro-6-methylbenzoyl)octahydro-1H-cyclopenta[b]pyridine-3-carboxamide]
< 50	50 to 500	Cc1cccc(F)c1C(=O)N1C2CCC[C@@H]2C[C@H](C(=O)Nc2cccc(F)c2)[C@@H]1c1ccc(NC2CCCC2)cc1 (mixture of isomers) [Compound 56, cis-2-(4-(cyclopentylamino)phenyl)-1-(2-fluoro-6-methylbenzoyl)-N-(3-fluorophenyl)octahydro-1H-cyclopenta[b]pyridine-3-carboxamide]
